In patent US20240317727A1 (Duke University, priority 2018, published 2024):

Tests used:
[1] = target: T1, recombinant HSF1 DNA-binding domain (DBD) (Homo sapiens, UniProt Q00613); experiment: Differential Scanning Fluorimetry (DSF), HSF1 DBD melting temperature; conditions: 5 μM HSF1 DBD, 25PM Compound, positive = stabilizes, negative = destabilizes HSF1
T1 sequence (Q00613 15-120): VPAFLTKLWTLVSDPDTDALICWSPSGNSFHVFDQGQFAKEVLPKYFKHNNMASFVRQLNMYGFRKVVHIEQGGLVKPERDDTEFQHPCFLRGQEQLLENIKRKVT

[2] = target: T2, purified recombinant human HSF1 (HSF1 DNA binding domain) (Homo sapiens, UniProt Q00613); experiment: Melting temperature of HSF1 DBD with HSF1 degrader compounds (Sypro orange); conditions: 12.5 micromolar compound, 5 micromolar HSF1 DBD, compared to DMSO; read-out: ΔTm (° C.)
T2 sequence (Q00613 15-120): T1 sequence (Q00613 15-120)
Description: The melting temperature (ΔTm) for purified recombinant human HSF1 (HSF1 DNA binding domain) was determined in the presence of HSF1 degrader compounds shown in Table 5 and compared to the solvent DMSO. Sypro orange dye was added to the HSF1 DBD (5 micromolar final concentration) in buffer, mixed and distributed to wells in 384 well microtiter plates. HSF1 degrader compound (12.5 micromolar) or DMSO solvent was added to three replicate wells per compound concentration, mixed and plates loaded into a Quant Studio thermnocycler and run on a temperature gradient from 25° C. to 85° C. with increments of 0.5° C. steps. Melting curves were obtained and analyzed using the ThermnoFisher Shift Software 1.4 fitted with a Boltzmann equation to determine the change in melting temperature of the protein in the presence of DMSO as compared to compound. The difference in the melting temperature under these two conditions was assigned as the change in melting temperature of ΔTm.

ΔTm at 25 µM ([1]; Table 1) | SMILES | further results
– | O=[N+]([O-])c1cc(NC2=NS(=O)(=O)N=C2Nc2ccc(F)cc2)ccc1Cl [Compound 080, N3-(4-chloro-3-nitro-phenyl)-N4-(4-fluorophenyl)-1,1-dioxo-1,2,5-thiadiazole-3,4-diamine] | ΔTm at 25 µM ([1]; Table 3): 1.6 °C
-3.6 °C | c1ccc(-c2ccc(C(c3ccccc3)n3ccnc3)cc2)cc1 (centres unmarked) [Compound 0081] | –
3.9 °C | Cc1ccc(/C=N/NC(=O)c2c[nH]c3ccccc23)s1 [Compound 0082] | –
2 °C | N#Cc1cc(NC(=O)Nc2ccc(F)cc2)ccc1Cl [Compound 0083, 1-(4-chloro-3-cyano-phenyl)-3-(4-fluorophenyl) urea] | –
– | N#Cc1cc(NC(=O)Nc2ccc(F)cc2)ccc1Cl [Compound 083, 1-(4-chloro-3-cyano-phenyl)-3-(4-fluorophenyl) urea] | ΔTm at 25 µM ([1]; Table 3): 2 °C
-8.96 °C | CC(C)(C)c1ccc(-c2nnc(SCC(=O)NCc3ccccc3)n2-c2ccccc2)cc1 [Compound 0084] | –
3.26 °C | O=C(Nc1ccccc1)Nc1ccc(OC(F)(F)F)cc1 [Compound 0085] | –
-11.5 °C | O=C(O)C1=CC(=C(c2ccc(O)c(C(=O)O)c2)c2ccc(O)c(C(=O)O)c2)C=CC1=O [Compound 0086] | –
-9.24 °C | CCOc1ccc(S(=O)(=O)NCc2ccccn2)c2ccccc12 [Compound 0087] | –
-3.02 °C | COc1cc2cc(N(C)CCCNC(=O)C3CCCO3)cc(N)c2cc1OC (centres unmarked) [Compound 0088] | –
-5.73 °C | COc1ccc(CSc2ccc([N+](=O)[O-])c3nonc23)cc1 [Compound 0089] | –
0.67 °C | O=C(Nc1ccc(F)cc1)Nc1ccc(Cl)nc1 [Compound 0090, 1-(6-chloro-3-pyridyl)-3-(4-fluorophenyl) urea] | –
– | O=C(Nc1ccc(F)cc1)Nc1ccc(Cl)nc1 [Compound 090, 1-(6-chloro-3-pyridyl)-3-(4-fluorophenyl) urea] | ΔTm at 25 µM ([1]; Table 3): 0.67 °C
2.5 °C | O=C(Nc1ccccc1)Nc1cccc(Cl)c1 [Compound 0091, 1-(3-chlorophenyl)-3-phenylurea] | –
– | O=C(Nc1ccccc1)Nc1cccc(Cl)c1 [Compound 091, 1-(3-chlorophenyl)-3-phenylurea] | ΔTm at 25 µM ([1]; Table 3): 2.5 °C
2.33 °C | O=c1c(Nc2ccc(F)c(F)c2)c(Nc2ccc(Cl)c(C(F)(F)F)c2)c1=O [Compound 0092, 3-[4-chloro-3-(trifluoromethyl)anilino]-4-(3,4-difluoroanilino)cyclobut-3-ene-1,2-dione] | –
– | O=c1c(Nc2ccc(F)c(F)c2)c(Nc2ccc(Cl)c(C(F)(F)F)c2)c1=O [Compound 092, 3-[4-chloro-3-(trifluoromethyl)anilino]-4-(3,4-difluoroanilino)cyclobut-3-ene-1,2-dione] | ΔTm at 25 µM ([1]; Table 3): 2.33 °C
2.92 °C | O=C(Nc1ccc(Cl)c([N+](=O)[O-])c1)Nc1ccc(F)c(C2(C(F)(F)F)N=N2)c1 [Compound 0094, 1-(4-chloro-3-nitro-phenyl)-3-[4-fluoro-3-[3-(trifluoromethyl)diazirin-3-yl]phenyl]urea] | –
– | O=C(Nc1ccc(Cl)c([N+](=O)[O-])c1)Nc1ccc(F)c(C2(C(F)(F)F)N=N2)c1 [Compound 094, 1-(4-chloro-3-nitro-phenyl)-3-[4-fluoro-3-[3-(trifluoromethyl)diazirin-3-yl]phenyl]urea] | ΔTm at 25 µM ([1]; Table 3): 2.92 °C
0.67 °C | CC(=O)Nc1cc(NC(=O)Nc2ccc(F)cc2)ccc1Cl [Compound 0095, N-[2-chloro-5-[(4-fluorophenyl)carbamoylamino]phenyl]acetamide] | –
– | CC(=O)Nc1cc(NC(=O)Nc2ccc(F)cc2)ccc1Cl [Compound 095, N-[2-chloro-5-[(4-fluorophenyl)carbamoylamino]phenyl]acetamide] | ΔTm at 25 µM ([1]; Table 3): 0.67 °C
2.61 °C | O=C(Nc1ccc(F)cc1)Nc1ccc(Cl)cc1 [Compound 0096, 1-(4-chlorophenyl)-3-(4-fluorophenyl)urea] | –
– | O=C(Nc1ccc(F)cc1)Nc1ccc(Cl)cc1 [Compound 096, 1-(4-chlorophenyl)-3-(4-fluorophenyl)urea] | ΔTm at 25 µM ([1]; Table 3): 2.61 °C
3.43 °C | O=C(Nc1ccc(S(=O)(=O)N2CCCCC2)cc1)c1cccc(Cl)c1 [Compound 0097] | –

ΔTm at 25 µM ([1]; Table 1) | SMILES | further results
4.93 °C | O=C(COc1ccc(Cl)cc1Cl)N/N=C/c1c[nH]c2ccccc12 [Compound 0098] | –
-6.74 °C | CCN1C(=O)/C(=C\c2cc([N+](=O)[O-])cc(Br)c2O)SC1=S [Compound 0099] | –
-7.52 °C | Cc1c2oc3c(C)c(O)c(I)cc3c(-c3c(Cl)c(Cl)c(Cl)c(Cl)c3C(=O)O)c-2cc(I)c1=O [Compound 0100] | –
3.33 °C | O=C(Nc1ccc(F)c(F)c1)Nc1ccc(Cl)c(C(F)(F)F)c1 [Compound 0101, 1-(4-chloro-3-(trifluoromethyl)phenyl)-3-(3,4-difluorophenyl)urea] | –
4.7 °C | O=C(Nc1ccc(F)cc1)Nc1ccc(Cl)c(O)c1 [Compound 0103, 1-(4-chloro-3-hydroxyphenyl)-3-(4-fluorophenyl)urea] | –
3.27 °C | O=C(Nc1cc(Cl)ccc1O)c1ccccc1CSc1ccc(Cl)cc1 [Compound 0104] | –
3.2 °C | CC(C)(C)c1ccc(NC(=O)Nc2ccc(Cl)c([N+](=O)[O-])c2)cc1 [Compound 0105, 1-(4-(tert-butyl)phenyl)-3-(4-chloro-3-nitrophenyl)urea] | –
3.28 °C | O=C(Nc1cccc([N+](=O)[O-])c1)Nc1ccc(F)cc1C(=O)O [Compound 0106, 5-fluoro-2-(3-(3-nitrophenyl)ureido)benzoic acid] | –
-4.4 °C | N#C/C(=C(/Oc1ccc(Cl)cc1Cl)C(F)(F)F)c1ccccc1 [Compound 0107] | –
-9.02 °C | CC(C)c1ccc2c(c1)c(SC(C)(C)C)c(CC(C)(C)C(=O)O)n2Cc1ccc(Cl)cc1 [Compound 0109] | –
2.94 °C | Cc1ccc(NC(=O)Nc2cccc([N+](=O)[O-])c2)cc1 [Compound 0110, 1-(3-nitrophenyl)-3-(p-tolyl)urea] | –
2.08 °C | O=c1c(Nc2ccc(F)cc2)c(Nc2ccc(Cl)c(S(=O)(=O)C(F)(F)F)c2)c1=O [Compound 0112, 3-[4-chloro-3-(trifluoromethylsulfonyl)anilino]-4-(4-fluoroanilino)cyclobut-3-ene-1,2-dione] | –
2.28 °C | Cc1ccc(NC(=O)Nc2ccc(Cl)cc2)cc1 [Compound 0113, 1-(4-chlorophenyl)-3-(p-tolyl)urea] | –
0.49 °C | Cc1cc(/C=N/Nc2nc3ccccc3s2)cc(C)c1O [Compound 0114] | –
-9.91 °C | Cc1ccc(CNC(=O)CSc2nnc(-c3ccccc3)n2-c2ccc(C)c(C)c2)cc1 [Compound 0115] | –
– | N#Cc1ccc(NC(=O)Nc2ccc3c(c2)S(=O)(=O)C=C3)cc1C1CC1 [Compound 259, 1-(4-cyano-3-cyclopropylphenyl)-3-(1,1-dioxidobenzo[b]thiophen-6-yl)urea] | ΔTm at 12.5 µM [2]: 1.25 °C
– | N#Cc1ccc(NC(=O)Nc2ccc3c(c2)S(=O)(=O)C=C3)cc1C1CCCC1 [Compound 260, 1-(4-cyano-3-cyclopentylphenyl)-3-(1,1-dioxidobenzo[b]thiophen-6-yl)urea] | ΔTm at 12.5 µM [2]: 0.5 °C
– | CCc1cc(NC(=O)Nc2ccc3c(c2)S(=O)(=O)C=C3)ccc1C#N [Compound 262, 1-(4-cyano-3-ethylphenyl)-3-(1,1-dioxidobenzo[b]thiophen-6-yl)urea] | ΔTm at 12.5 µM [2]: 2.47 °C
– | CC(C)c1cc(NC(=O)Nc2ccc3c(c2)S(=O)(=O)C=C3)ccc1C#N [Compound 263, 1-(4-cyano-3-isopropylphenyl)-3-(1,1-dioxidobenzo[b]thiophen-6-yl)urea] | ΔTm at 12.5 µM [2]: 1.25 °C
– | N#Cc1ccc(NC(=O)Nc2ccc3c(c2)C=CS3(=O)=O)s1 [Compound 272, 1-(5-cyanothiophen-2-yl)-3-(1,1-dioxidobenzo[b]thiophen-5-yl)urea] | ΔTm at 12.5 µM [2]: 0.86 °C
– | N#Cc1ccc(NC(=O)Nc2cccc([N+](=O)[O-])c2)cc1 [Compound 273, 1-(4-cyanophenyl)-3-(3-nitrophenyl)urea] | ΔTm at 12.5 µM [2]: 1.15 °C
– | N#Cc1ccc(NC(=O)Nc2cccc(C(F)(F)F)c2)cc1 [Compound 274, 1-(4-cyanophenyl)-3-(3-(trifluoromethyl)phenyl)urea] | ΔTm at 12.5 µM [2]: 1.41 °C
– | N#Cc1ccc(NC(=O)Nc2cccc(S(=O)(=O)C(F)(F)F)c2)cc1 [Compound 275, 1-(4-cyanophenyl)-3-(3-((trifluoromethyl)sulfonyl)phenyl)urea] | ΔTm at 12.5 µM [2]: 1.31 °C
– | CS(=O)(=O)Nc1cccc(NC(=O)Nc2ccc(C#N)cc2)c1 [Compound 276, N-(3-(3-(4-cyanophenyl)ureido)phenyl)methanesulfonamide] | ΔTm at 12.5 µM [2]: 0.12 °C

SMILES | ΔTm at 25 µM ([1]; Table 1) | further results
Cc1cc([N+](=O)[O-])cc([N+](=O)[O-])c1Sc1ncc2ccccn12 [Compound 0093] | -3.44 °C | –
O=[N+]([O-])c1cc(C(F)(F)F)cc([N+](=O)[O-])c1Oc1ccc(C2CCCCC2)cc1 [Compound 0102] | -6.23 °C | –
CCOC(=O)c1sc(Sc2ccc([N+](=O)[O-])cc2[N+](=O)[O-])nc1C [Compound 0108] | -4.19 °C | –
Cc1cc(Oc2c([N+](=O)[O-])cc(C(F)(F)F)cc2[N+](=O)[O-])c2c(Cl)ccc(C)c2n1 [Compound 0111] | -5.21 °C | –
CSc1ccc(Oc2c([N+](=O)[O-])cc(C(F)(F)F)cc2[N+](=O)[O-])cc1 [Compound 0116] | -5.56 °C | –
